From a melting point compilation (Tetko et al.; mined from patent text by program, amines drawn as free bases though some values may be those of a salt)

SMILES | melting point [°C]
O=C(NCc1ccn(-c2cc3nc(C(=O)O)c(=O)[nH]c3cc2C(F)(F)F)c1)Nc1ccccc1 | > 300
CC(C)Cc1ccc(C(C)C(=O)ON(C(N)=O)C(C)c2ccoc2)cc1 (stereo unspecified) | 55 to 59
COc1ccccc1-c1nn(-c2ccccc2)c(=O)o1 | 112 to 115
Cn1c(=O)c(-c2ccc(Cl)cc2Cl)cc2c3cc(-c4c[nH]nc4N)ccc3n(C)c21 | 240 to 245
Cc1ccc2c(=O)c(C(=O)O)cn(N)c2n1 | 239 to 240
CC(C)(C)NC(=O)c1nn(-c2ccc(F)cc2)c2c1C1CCC2CC1 | 190 to 193
NC(=O)c1ncn2c1nc(N1CCOCC1)c1ccccc12 | > 300
Cc1cccc(COc2cccc(OCc3cccc(Cl)n3)c2)c1C(=O)O | 97 to 98
O=C(NCC(=O)N(CC(=O)N1CCCCC1c1ccccc1)c1ccccc1)Nc1cccc(CO)c1 (racemic) | 104
CNCCCN(C)c1ccc2c(C(=O)NCC34CC5CC(CC(C5)C3)C4)c(Cl)ccc2n1 | 195 to 200
C=Cc1[nH]c2cccc3c2c1CC1C3CC(NC(=O)N(CC)CC)CN1C (stereo unspecified) | 145 to 150
FC(F)(F)CSc1nc(-c2ccc(Cl)cc2)c(-c2ccc(Cl)cc2)[nH]1 | 212 to 213
COC(=O)NC1CCC(Nc2ncc3c(N)cc(=O)n(CCCO)c3n2)CC1 (stereo unspecified) | 190 to 191
COc1ccc(-c2nc(C(=O)N3CCN(C(=O)NC(C)C)CC3)sc2-c2ccc(OC)cc2)cc1 | 157 to 159
COc1cc(NC(=O)C#Cc2ccc(C(F)(F)F)cc2Cl)ccc1OCCN1CC(C)CC(C)C1 (stereo unspecified) | 196 to 201
O=C(O)CS(=O)CC(=O)O | 118 to 119
CCNC(=O)c1c(Cl)cc(C(C)(C)C)cc1[Si](C)(C)C | 124 to 126
CCCC=Cc1c(C(C)C)nc(C(C)C)c(CO)c1-c1ccc(F)c(F)c1 | 105 to 106

SMILES | melting point [°C]
COc1ccc2[nH]c3cc(-c4ccccc4-c4ccccc4)c4c(c3c2c1)C(=O)NC4=O | 220 to 223
CCCOc1ccccc1C1=NC(=O)C2=NC(S)=NC2=N1 | 305 to 307
CC(=O)N(O)C(C)c1ccc(C#Cc2cccs2)cc1 (stereo unspecified) | 128 to 129
CSc1cccc(S(N)(=O)=O)c1 | 126 to 127
OC1(c2ccc(-c3cccnc3)cc2)CN2CCC1CC2 (stereo unspecified) | 172 to 173
COc1cc(-c2cn3ccccc3n2)c(F)cc1Cl | 139 to 141
NS(=O)(=O)Oc1cccc(F)c1 | 53 to 55
COc1cccc2c(=O)n3c(cc12)S(=O)(=O)CCC3 | 251 to 252
N#CNC(=NCCO[N+](=O)[O-])c1cncc(N)c1 | 121
COC(Cn1cncn1)(c1ccc(Cl)cc1)C(C)(C)C1CC1 (stereo unspecified) | 87 to 89
CC(CS)C(=O)Nc1cccc(C(=O)O)n1 (stereo unspecified) | 178 to 179
NC(=O)c1cccc(OCCCl)c1 | 125 to 126
COc1ccc(/C=C/C(=O)C2C(=O)CC(c3ccc(OC)cc3)C([N+](=O)[O-])C2C=Cc2ccccc2)cc1 (stereo unspecified) | 88 to 90
NC1N=C(c2ccccc2)c2ccccc2N(CC(F)(F)F)C1=O (stereo unspecified) | 141 to 143
O=C(O)c1cccc2cc(Cc3cc(=O)[nH]c(=S)[nH]3)ccc12 | 334 to 337
COc1cccc(S(=O)(=O)Nc2ccc(Cl)nc2I)c1 | 154
CCCCCCCCNc1nc(NCC(O)C2CC(C)(C)NC(C)(C)C2)nc(NCC(O)C2CC(C)(C)NC(C)(C)C2)n1 (stereo unspecified) | 117 to 119
COc1ccc(-c2ccc(C(=O)Nc3ccc4cc(CN5CCCC5)cnc4c3C)cc2F)cc1 | 174 to 176

Now from value to molecule:

melting point [°C] | SMILES
104 to 108 | O=c1[nH]c(NCCCOc2cccc(CN3CCCCC3)c2)ncc1CCCc1ccccc1
115 to 120 | CC(c1ccccc1)C(Oc1c(Br)cc(-c2c3ccccc3c(Br)c3sc4ccccc4c23)cc1Br)C(=O)O (stereo unspecified)
59 to 61 | O[C@@H]1CCc2ccc(F)cc2C1
148 to 150 | C[C@@H]1C(=O)C=CN2c3ccccc3CC[C@@H]12 (relative stereo)
85 to 87 | COC(=O)[C@H](Cc1ccc(NC(=O)c2c(Cl)cccc2Cl)cc1)NC(=O)C1(Cc2ccc(OC)cc2)CCCCC1
184 to 185 | N#Cc1ccc(C(=O)NNc2ccc(NC(=S)Nc3ccccc3)cc2)cc1
154 to 156 | CC1CCCC(C)(C)C1C(O)c1ccc(C(N)=NO)c(F)c1 (stereo unspecified)
148 to 150 | COc1ccc2cc(C3CCN(CC(O)COc4ccccc4C=C4CCOC4=O)CC3)ccc2c1 (stereo unspecified)
183 | Cc1cc(-c2cc(C(F)(F)F)n3ncc(-c4ccccn4)c3n2)ccc1Cl
103 to 104 | COC1(c2ccc(C(F)(F)F)cc2CN(Cc2cc(C(F)(F)F)cc(C(F)(F)F)c2)c2nnn(C)n2)CCCCCC1
245 to 248 | CCOC(=O)c1cnc2c3cc(N)ccc3c(C)cn2c1=O
74 to 75 | C=CC(CC(=O)Nc1ccc(F)cc1)C(C)C (stereo unspecified)
185 to 193 | COc1ccc(-c2sc3c(c2CN(C)Cc2ccccc2)c(=O)c(C(C)=O)cn3Cc2ccccc2F)cc1
276 to 278 | O=C(NCc1ncc[nH]1)c1[nH]c2ccc(Cl)cc2c1S(=O)(=O)c1ccccc1
98 to 100 | CCCCOC(=O)[C@H]1CN(c2ccc(C3CCSCC3)c(F)c2)C(=O)O1
102 to 104 | O=C1NC(=O)C(Cc2ccc(OCCON=Cc3ccc(-c4ccccc4)nc3)cc2)S1 (stereo unspecified)
99 to 100 | CC(C)[C@H](NC(=O)OCc1ccccc1)C(=O)OCc1nc2c(N)nc3ccccc3c2n1CCCCNS(C)(=O)=O
198 to 200 | CCCCc1ncc(/C=C(\Cc2cccs2)C(=O)O)n1Cc1ccc([N+](=O)[O-])cc1

melting point [°C] | SMILES
239 to 241 | NC(=O)N1C(=O)/C(=C(\O)c2cccs2)c2cc(F)c(Cl)cc21
192 to 193 | COc1ccc2c3c([nH]c2c1)C(=O)C(CC1CCN(C(=O)OC(C)(C)C)CC1)C3 (stereo unspecified)
98 to 100 | CC(C)C1(c2ccccc2OCCCCBr)C(=O)N(C)c2ccccc21 (stereo unspecified)
198 to 201 | COC(=O)c1nc2nc(C(C)C)cc(O)n2n1
119 to 121 | C[C@H](O)Cc1ncc[nH]1
53 | COc1cc(C)c(CCCCCCCCCCCCCCCCCCOC(C)=O)c(O)c1OC
129 | COc1cc(OC)c(C)c(C(=O)OCC(Cl)(Cl)Cl)c1C
152 | CS(=O)(=O)C(=C1CN(C(c2ccccc2)c2ccccc2)C1)c1cccc(C#N)c1
99 to 102 | COCCOCCOc1ccc2cc(C(=O)O)[nH]c2c1
80 to 88 | Cc1cccc(C(=O)c2[nH]c3cc(Cl)ccc3c2N)c1
70 to 72 | CCCC[C@H](NC(=O)[C@H](CC(C)C)NC(=O)OC(C)(C)C)C(=O)CCCc1cccs1
125 to 126 | CC(=O)COc1ccc2c(c1)C(=O)NC(C)(C)O2
186 | CN(CCOc1ccc(CC2SC(=O)NC2=O)cc1)c1nccs1 (stereo unspecified)
125 | O=C(O)C=NNc1ccc(C(F)(F)F)cc1
194 to 195 | CC1=NC(NC(=O)CCc2ccc(Cl)cc2Cl)C(=O)N(C)c2ccccc21 (stereo unspecified)
216 to 220 | O=C(O)CN(CCCCC(C(=O)O)N(CC(=O)O)CC(=O)O)CC(=O)O (stereo unspecified)
220 to 221 | O=c1c2ccc3c(c2oc2cccc(F)c12)CC(CO)O3 (stereo unspecified)
